# Values of other authors as cited in US20210195917A1, “COMPOSITIONS AND RELATED METHODS FOR AGRICULTURE” (priority 2017, published 2021).
# B1: NCR335: cationic NCR peptide of Medicago truncatula, SEQ ID NO: 65 (peptide, listed as Medicago truncatula)
# chain: MQIGKNMVETPKLDYVIIFFFLYFFFRQMIILRLNTTFRPLNFKMLRFWGQNRNIMKHRGQKVHFSLILSDCKTNKDCPKLRRANVRCRKSYCVPI
# Experiments:
# bees = details: in vivo
# target bacterial strains = details: against its target bacterial strains
# [1] = tested on: gram-negative and gram-positive bacteria as well as fungi
molecule,measurement,setting,value
COP(=S)(OC)Oc1ccc([N+](=O)[O-])c(C)c1 [fenitrothion],toxicity to bees,bees,toxic to bees
botrycidin AJ1316,antifungal activities,fungi,antifungal activities
nisin,concentration showing antimicrobial activity,target bacterial strains,single-digit nanomolar
B1,antimicrobial activities,[1],effective
